Laboratory results as given in patent US7601357B2 (priority 2005, dated 2009).
“And” between values parts separate entries of the source, which are not always exact repeats. Equal entries are not always repeated.

T1: LIPY (Mycobacterium tuberculosis, UniProt I6Y2J4)
T1 construct: The 24 open-reading frames (ORFs) were amplified from the genomic DNA of M. tuberculosis H37Rv; 6xHis (pET200 D-TOPO N-terminal fusion) (N); made in house; host or cells: E. coli BL21 Star (DE3)
T1 sequence (I6Y2J4 1-437): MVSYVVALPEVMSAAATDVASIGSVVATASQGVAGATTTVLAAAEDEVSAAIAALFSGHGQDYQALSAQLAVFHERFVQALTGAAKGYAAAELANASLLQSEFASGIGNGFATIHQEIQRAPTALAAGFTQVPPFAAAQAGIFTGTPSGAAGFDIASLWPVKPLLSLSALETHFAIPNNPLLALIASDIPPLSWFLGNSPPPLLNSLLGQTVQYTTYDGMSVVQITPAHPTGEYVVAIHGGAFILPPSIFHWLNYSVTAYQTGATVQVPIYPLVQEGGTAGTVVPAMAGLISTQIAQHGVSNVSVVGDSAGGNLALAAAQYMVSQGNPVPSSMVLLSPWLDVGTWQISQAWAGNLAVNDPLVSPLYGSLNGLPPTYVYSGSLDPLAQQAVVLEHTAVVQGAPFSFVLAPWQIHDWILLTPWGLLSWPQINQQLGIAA


Molecular target: T1, LIPY
Type: biochemical
Details: not given

Molecule | Effect of salt on LIPY activity (in words) | LIPY activity (triolein hydrolase) Mean ± SD
CC(=O)[O-].[K+] [CH3COO.K, potassium acetate] | enhanced the activity | 692.6 ± 57.0 nmol/mg/min and 749.0 ± 73.3 nmol/mg/min
CC(=O)[O-].[Na+] [CH3COO.Na, sodium acetate] | enhanced the activity | 681.7 ± 80.3 nmol/mg/min and 729.3 ± 96.5 nmol/mg/min
[Ca+2].[Cl-].[Cl-] [CaCl2] | inhibited | –
[Cl-].[Cl-].[Co+2] [CoCl2] | inhibited the activity | –
[Cl-].[K+] [KCl] | enhanced the activity | 675.2 ± 103.5 nmol/mg/min and 686.8 ± 68.8 nmol/mg/min
[Cl-].[Cl-].[Mg+2] [MgCl2] | inhibited the activity | 306.3 ± 111.1 nmol/mg/min and 219.9 ± 34.3 nmol/mg/min
[Cl][Mn][Cl] [MnCl2] | inhibited the activity | –
[Cl-].[Na+] [NaCl] | enhanced the activity | 681.3 ± 87.2 nmol/mg/min
[Cl-].[Cl-].[Zn+2] [ZnCl2] | inhibited the activity | –

Same assay, conditions: 0.5 µM

Molecule | Inhibition of LIPY activity [%]
CCOP(=O)(OCC)Oc1ccc([N+](=O)[O-])cc1 [E-600, diethyl-p-nitrophenyl phosphate, reference compound] | 99.5

Same assay, conditions: 0.1%

Molecule | Effect of detergent on LIPY lipase activity
polyethylene glycol tert-octylphenyl ether [Triton X-100, reference compound] | stimulated the activity

Same assay, conditions: all concentrations from 0.1-2.0%

Molecule | Effect of detergent on LIPY lipase activity
CCCCCCCCCCCC(=O)OCCOCCOCCOCCOCCOCCOCCOCCOCCOCCOCCOCCOCCOCCOCCOCCOCCOCCOCCOCCOCC(OCCOCCOCCOCCOCCOCCOCCOCCOCCOCCOCCOCCOCCOCCOCCOCCOCCOCCOCCOCCO)C1OCC(OCCOCCOCCOCCOCCOCCOCCOCCOCCOCCOCCOCCOCCOCCOCCOCCOCCOCCOCCOCCO)C1OCCOCCOCCOCCOCCOCCOCCOCCOCCOCCOCCOCCOCCOCCOCCOCCOCCOCCOCCOCCO (stereo not drawn) [Tween-20, polyethylene glycol sorbitan monolaurate, reference compound] | inhibited

Same assay, conditions: concentrations above 2 mM

Molecule | Effect of detergent on LIPY lipase activity
CCCCCCCCCCCCOS(=O)(=O)[O-].[Na+] [SDS, sodium dodecyl sulfate, reference compound] | severely inhibited

Same assay, conditions: concentrations higher than 0.1%

Molecule | Effect of detergent on LIPY lipase activity
polyethylene glycol tert-octylphenyl ether [Triton X-100, reference compound] | inhibitory

Same assay, conditions: concentrations up to 2 mM

Molecule | Effect of detergent on LIPY lipase activity
CCCCCCCCCCCCOS(=O)(=O)[O-].[Na+] [SDS, sodium dodecyl sulfate, reference compound] | stimulated slightly

System: not given
Type: biochemical, M. tuberculosis
Details: pH 8

Molecule | TG hydrolase activity [nmol/mg/min]
LIPJ: M. tuberculosis putative lipase/esterase gene product expressed in E. coli (protein, UniProt O07732 1-462, looked up, expressed in E. coli) Bifunctional lipase/adenylate …: MAQAPHIHRTRYAKCGDMDIAYQVLGDGPTDLLVLPGPFVPIDSIDDEPSLYRFHRRLASFSRVIRLDHRGVGLSSRLAAITTLGPKFWAQDAIAVMDAVGCEQATIFAPSFHAMNGLVLAADYPERVRSLIVVNGSARPLWAPDYPVGAQVRRADPFLTVALEPDAVERGFDVLSIVAPTVAGDDVFRAWWDLAGNRAGPPSIARAVSKVIAEADVRDVLGHIEAPTLILHRVGSTYIPVGHGRYLAEHIAGSRLVELPGTDTLYWVGDTGPMLDEIEEFITGVRGGADAERMLATIMFTDIVGSTQHAAALGDDRWRDLLDNHDTIVCHEIQRFGGREVNTAGDGFVATFTSPSAAIACADDIVDAVAALGIEVRIGIHAGEVEVRDASHGTDVAGVAVHIGARVCALAGPSEVLVSSTVRDIVAGSRHRFAERGEQELKGVPGRWRLCVLMRDDATRTR | 0.04
LIPC: M. tuberculosis putative lipase/esterase gene product expressed in E. coli (protein, UniProt P96402 1-403, looked up) Esterase LipC: MNQRRAAGSTGVAYIRWLLRARPADYMLALSVAGGSLPVVGKHLKPLGGVTAIGVWGARHASDFLSATAKDLLTPGINEVRRRDRASTQEVSVAALRGIVSPDDLAVEWPAPERTPPVCGALRHRRYVHRRRVLYGDDPAQLLDVWRRKDMPTKPAPVLIFVPGGAWVHGSRAIQGYAVLSRLAAQGWVCLSIDYRVAPHHRWPRHILDVKTAIAWARANVDKFGGDRNFIAVAGCSAGGHLSALAGLTANDPQYQAELPEGSDTSVDAVVGIYGRYDWEDRSTPERARFVDFLERVVVQRTIDRHPEVFRDASPIQRVTRNAPPFLVIHGSRDCVIPVEQARSFVERLRAVSRSQVGYLELPGAGHGFDLLDGARTGPTAHAIALFLNQVHRSRAQFAKEVI | 3.3
LIPI: M. tuberculosis putative lipase/esterase gene product expressed in E. coli (protein, UniProt P71668 1-320, looked up, expressed in E. coli) Esterase LipI: MPSLDNTADEKPAIDPILLKVLDAVPFRLSIDDGIEAVRQRLRDLPRQPVHPELRVVDLAIDGPAGPIGTRIYWPPTCPDQAEAPVVLYFHGGGFVMGDLDTHDGTCRQHAVGADAIVVSVDYRLAPEHPYPAAIEDAWAATRWVAEHGRQVGADLGRIAVAGDSAGGTIAAVIAQRARDMGGPPIVFQLLWYPSTLWDQSLPSLAENADAPILDVKAIAAFSRWYAGEIDLHNPPAPMAPGRAENLADLPPAYIAVAGYDPLRDDGIRYGELLAAAGVPVEVHNAQTLVHGYVGYAGVVPAATEATNRGLVALRVVLHG | 0
LIPL: M. tuberculosis putative lipase/esterase gene product expressed in E. coli (protein, UniProt P71778 1-429, looked up) Esterase/beta-lactamase LipL: MMVDTGVDHRAVSSHDGPDAGRRVFGAADPRFACVVRAFASMFPGRRFGGGALAVYLDGQPVVDVWKGWADRAGWVPWSADSAPMVFSATKGMTATVIHRLADRGLIDYEAPVAEYWPAFGANGKATLTVRDVMRHQAGLSGLRGATQQDLLDHVVMEERLAAAVPGRLLGKSAYHALTFGWLMSGLARAVTGKDMRLLFREELAEPLDTDGLHLGRPPADAPTRVAEIIMPQDIAANAVLTCAMRRLAHRFSGGFRSMYFPGAIAAVQGEAPLLDAEIPAANGVATARALARMYGAIANGGEIDGIRFLSRELVTGLTRNRRQVLPDRNLLVPLNFHLGYHGMPIGNVMPGFGHVGLGGSIGWTDPETGVAFALVHNRLLSPLVMTDHAGFVGIYHLIRQAAAQARKRGYQPVTPFGAPYSEPGAAAG | 3.4
LIPN: M. tuberculosis putative lipase/esterase gene product expressed in E. coli (protein, UniProt P95125 1-376, looked up, expressed in E. coli) Carboxylic ester hydrolase …: MTKSLPGVADLRLGANHPRMWTRRVQGTVVNVGVKVLPWIPTPAKRILSAGRSVIIDGNTLDPTLQLMLSTSRIFGVDGLAVDDDIVASRAHMRAICEAMPGPQIHVDVTDLSIPGPAGEIPARHYRPSGGGATPLLVFYHGGGWTLGDLDTHDALCRLTCRDADIQVLSIDYRLAPEHPAPAAVEDAYAAFVWAHEHASDEFGALPGRVAVGGDSAGGNLSAVVCQLARDKARYEGGPTPVLQWLLYPRTDFTAQTRSMGLFGNGFLLTKRDIDWFHTQYLRDSDVDPADPRLSPLLAESLSGLAPALIAVAGFDPLRDEGESYAKALRAAGTAVDLRYLGSLTHGFLNLFQLGGGSAAGTNELISALRAHLSRV | 0
LIPM: M. tuberculosis putative lipase/esterase gene product expressed in E. coli (protein, UniProt Q50681 1-431, looked up, expressed in E. coli) Probable carboxylic ester …: MGAPRLIHVIRQIGALVVAAVTAAATINAYRPLARNGFASLWSWFIGLVVTEFPLPTLASQLGGLVLTAQRLTRPVRAVSWLVAAFSALGLLNLSRAGRQADAQLTAALDSGLGPDRRTASAGLWRRPAGGGTAKTPGPLRMLRIYRDYAHDGDISYGEYGRANHLDIWRRPDLDLTGTAPVLFQIPGGAWTTGNKRGQAHPLMSHLAELGWICVAINYRHSPRNTWPDHIIDVKRALAWVKAHISEYGGDPDFIAITGGSAGGHLSSLAALTPNDPRFQPGFEEADTRVQAAVPFYGVYDFTRLQDAMHPMMLPLLERMVVKQPRTANMQSYLDASPVTHISADAPPFFVLHGRNDSLVPVQQARGFVDQLRQVSKQPVVYAELPFTQHAFDLLGSARAAHTAIAVEQFLAEVYATQHAGSEPGPAVAIP | 0.02
LIPQ: M. tuberculosis putative lipase/esterase gene product expressed in E. coli (protein, UniProt I6Y9F7 1-421, looked up) Esterase LipQ: MHIASVTSRCSRAGAEALRQGAQLAADARDTCRAGALLLRGSPCAIGWVAGWLSAEFPARVVTGHALSRISPRSIGRFGTSWAAQRADQILHAALVDAFGPDFRDLVWHPTGEQSEAARRSGLLNLPHIPGPHRRYAAQTSDIPYGPGGRENLLDIWRRPDLAPGRRAPVLIQVPGGAWTINGKRPQAYPLMSRMVELGWICVSINYSKSPRCTWPAHIVDVKRAIAWVRENIADYGGDPDFITITGGSAGAHLAALAALSANDPALQPGFESADTAVQAAAPYYGVYDLTNAENMHEMMMPFLEHFVMRSRYVDNPGLFKAASPISYVHSEAPPFFVLHGEKDPMVPSAQSRAFSAALRDAGAATVSYAELPNAHHAFDLAATVRSRMVAEAVSDFLGVIYGRRMGARKGSLALSSPPAS | 0.11
